In patent US20240368158A1, “KINASE MODULATORS, COMPOSITIONS COMPRISING THE KINASE MODULATOR, AND METHODS OF USING THE SAME” (BIOFRONT LTD, priority 2021, published 2024):

Experiments:
[1] = test system: HPK1 p-SLP-76 in Jurkat cells; test: HPK1 p-SLP-76 inhibition assay in Jurkat cells (HTRF); assay type: cell-based; details: Homo sapiens, 4 h compound, anti-CD3 stimulation 20 min
Experimental: Before compound treatment, Jurkat cells were starved in PRMI-1640 medium supplemented with 0.5% FBS overnight. The cell density was adjusted to 1*10^7 cells/mL in assay medium (RPMI-1640 no phenol red with 0.5% FBS) and 16 uL cell suspension was transferred per well to a 384-well plate (Corning #3765). […] of test compound was prepared in assay medium and 4 uL was added per well to the 384-well plate. The plate was then incubated at 37° C., 5% CO2 for 4 h. Jurkat cells in 384-well plate were stimulated with anti-CD3 (BD Biosciences #555329, final conc. is 10 ug/mL) for 20 min at 37° C., 5% CO2 by adding 4 uL 6× antibody solution per well. Phospho-SLP76 HTRF kit was purchased from Cisbio (63ADK076PEH). 8 uL 4× Lysis Buffer was added to 384-well plate after anti-CD3 stimulation. The plate was centrifuged at 1,000 rpm for 1 min, shaken at 250 rpm for 60 min and centrifuged again at 1,000 rpm for 5 min. Afterwards the cell lysates were transferred to the assay plate (Greiner #784075) with 16 uL per well. 4 uL detection antibody mix per well prepared in Detection Buffer was added to the assay plate, followed by centrifugation at 1,000 rpm for 1 min and incubation at 25° C. overnight. The fluorescence emission at two different wavelengths (665 nm and 620 nm) was read by an HTRF compatible microplate reader and the IC50 value of the compound was calculated.

[2] = target: T1, HPK1 (Homo sapiens, UniProt Q92918); test: HPK1 enzyme inhibition assay (ADP-Glo); assay type: biochemical; details: MBP substrate, ATP
T1 construct: purchased Signal Chem M23-11G-10
T1 sequence (Q92918 1-346 limits assumed): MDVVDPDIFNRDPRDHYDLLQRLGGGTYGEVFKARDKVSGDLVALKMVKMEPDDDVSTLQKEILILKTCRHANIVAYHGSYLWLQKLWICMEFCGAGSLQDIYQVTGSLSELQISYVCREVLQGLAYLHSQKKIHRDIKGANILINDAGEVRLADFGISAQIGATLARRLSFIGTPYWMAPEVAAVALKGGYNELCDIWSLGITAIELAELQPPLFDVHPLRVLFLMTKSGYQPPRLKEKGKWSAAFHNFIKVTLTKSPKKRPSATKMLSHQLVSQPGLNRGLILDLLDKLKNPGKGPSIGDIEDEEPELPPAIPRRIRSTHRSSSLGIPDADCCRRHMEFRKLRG
Experimental: The compound was dissolved in 100% DMSO at the concentration of 10 mM. The HPK1 protein was purchased from Signal Chem (M23-11G-10). 2.5 μL per well of 2×HPK1 protein was added to assay plate containing the test compound, centrifuged at 1500 rpm for 1 minute, and then incubated at 25° C. for 60 minutes. MBP protein was purchased from Signal Chem (M42-51N) and ATP was purchased from Promega (V9102). The two were added 2.5 μL per well mixture of 2×MBP (0.2 ug/ul) and ATP (20 μM), centrifuged at 1500 rpm for 1 minute, then incubated at 25° C. for 60 minutes. Then added 5 μL of ADP-Glo from Promega (V9102) to the assay plate and depleted the unconsumed ATP for 60 minutes. Then centrifuged at 1500 rpm for 1 minute and incubated at 25° C. for 60 minutes. Finally, 10 μL of the kinase assay reagent from Promega (V9102) was added to the assay plate to convert ADP to ATP, centrifuged at 1500 rpm for 1 minute, incubate at 25° C. for 40 minutes. After 40 minutes incubation, the […] was determined. Based on the results, the IC50 value of the compound was calculated.

Row | SMILES | IC50 [1] [µM] | IC50 [2] [µM]
1 | CC1CN(CCCS(=O)(=O)N2CCN(c3cccc(-c4cnc5[nH]cc(C6CC6)c5c4Cl)c3)C(=O)C2)C1 [Example 57, 1-(3-(4-chloro-3-cyclopropyl-1H-pyrrolo[2,3-b]pyridin-5-yl)phenyl)-4-((3-(3-methylazetidin-1-yl)propyl)sulfonyl)piperazin-2-one] | 0.3 to 3 | ≤ 0.01
2 | O=C1CN(S(=O)(=O)CCCN2CC(F)C2)CCN1c1cccc(-c2cnc3[nH]cc(C4CC4)c3c2Cl)c1 [Example 58, 1-(3-(4-chloro-3-cyclopropyl-1H-pyrrolo[2,3-b]pyridin-5-yl)phenyl)-4-((3-(3-fluoroazetidin-1-yl)propyl)sulfonyl)piperazin-2-one] | 0.3 to 3 | ≤ 0.01
3 | O=C1CN(S(=O)(=O)CCCN2CCOCC2)CCN1c1cccc(-c2cnc3[nH]cc(CC(F)F)c3c2Cl)c1 [Example 59, 1-(3-(4-chloro-3-(2,2-difluoroethyl)-1H-pyrrolo[2,3-b]pyridin-5-yl)phenyl)-4-((3-morpholinopropyl)sulfonyl)piperazin-2-one] | 0.3 to 3 | ≤ 0.01

The next lines start with the values.

Row | IC50 [1] [µM] | IC50 [2] [µM] | SMILES
4 | 0.3 to 3 | ≤ 0.01 | CS(=O)(=O)N1CCN(c2cccc(-c3cnc4[nH]cc(CC(F)F)c4c3Cl)n2)C(=O)C1 [Example 61, 1-(6-(4-chloro-3-(2,2-difluoroethyl)-1H-pyrrolo[2,3-b]pyridin-5-yl)pyridin-2-yl)-4-(methylsulfonyl)piperazin-2-one]
5 | 0.3 to 3 | ≤ 0.01 | COCCS(=O)(=O)N1CCN(c2cccc(-c3cnc4[nH]cc(CC(F)F)c4c3Cl)c2)C(=O)C1 [Example 62, 1-(3-(4-chloro-3-(2,2-difluoroethyl)-1H-pyrrolo[2,3-b]pyridin-5-yl)phenyl)-4-((2-methoxyethyl)sulfonyl)piperazin-2-one]
